Like-named read-outs stand apart in the source and are kept apart here.
Columns and labels:
Experiment in all cases: Solid tumour and haematological malignancy assay (CellTiterGlo)
Assay type in all cases: cell-based
[1] = tested on: HT29; conditions: Homo sapiens; for Emax: read-out: MI %; for EC50: read-out: EC50 (absolute EC50)
How it was run: (§1)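 Compound pre-warmed to 37° C in medium, added to cells in duplicate; incubated 3 days in CO2 incubator; viability measured with CellTiterGlo. DMSO final 0.5%.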

[2] = tested on: KG-1; conditions: Homo sapiens; for Emax: read-out: MI %; for EC50: read-out: EC50 (absolute EC50)
How it was run: as §1

[3] = tested on: CCRFCEM; conditions: Homo sapiens, CCRF-CEM; for Emax: read-out: MI %; for EC50: read-out: EC50 (absolute EC50)
How it was run: as §1

[4] = tested on: K562; conditions: Homo sapiens; for Emax: read-out: MI %; for EC50: read-out: EC50 (absolute EC50)
How it was run: as §1

[5] = tested on: HEL92.1.7; conditions: Homo sapiens; for Emax: read-out: MI %; for EC50: read-out: EC50 (absolute EC50)
How it was run: as §1

[6] = tested on: MCF7; conditions: Homo sapiens; for Emax: read-out: MI %; for EC50: read-out: EC50 (absolute EC50)
How it was run: as §1

[7] = tested on: HL-60; conditions: Homo sapiens; for Emax: read-out: MI %; for EC50: read-out: EC50 (absolute EC50)
How it was run: as §1

[8] = tested on: MiaPaCa-2; conditions: Homo sapiens; for Emax: read-out: MI %; for EC50: read-out: EC50 (absolute EC50)
How it was run: as §1

[9] = tested on: HepG2; conditions: Homo sapiens; for Emax: read-out: MI %; for EC50: read-out: EC50 (absolute EC50)
How it was run: as §1

[10] = tested on: RL; conditions: Homo sapiens; for Emax: read-out: MI %; for EC50: read-out: EC50 (absolute EC50)
Experimental: (§2) In vitro viability assay were performed to assess the effects of compounds on cell viability in selected cell lines over 72 hr using the CellTiterGlo (CTG, Promega-G7573) assay. The tests were performed in duplicates with treatment of compounds at 9 points, 3.16 folds titration in 96 well plates over ˜72 hr. The compound starting concentrations were […]. Cell viability assay using CellTiterGlo in 96-well plate were performed. Compound treatment 72 hrs, standard growth conditions, duplicates. Compounds were dissolved to 40 mM with thawed […]. Compounds were serially diluted at 3.16 fold in thawed DMSO, and warmed to 37° C. before being dissolved in media ([…]). After compounds were dissolved in media, media containing compounds were warmed to 37° C. in incubator and then compounds in media were added to cell plates ([…]) in duplicates. The compounds' final concentrations were from […] to 19.9 nM. All compound solubilities were checked and recorded again, then the plates were transferred to CO2 tissue culture incubator immediately and incubated for 3 days. DMSO final concentration is 0.5%.

[11] = tested on: SW620; conditions: Homo sapiens; for Emax: read-out: MI %; for EC50: read-out: EC50 (absolute EC50)
Experimental: as §2

[12] = tested on: HS445; conditions: for Emax: read-out: MI %; for EC50: read-out: EC50 (absolute EC50)
Experimental: as §2

[13] = tested on: NCI-H929; conditions: Homo sapiens; for Emax: read-out: MI %; for EC50: read-out: EC50 (absolute EC50)
Experimental: as §2

[14] = tested on: THP-1; conditions: Homo sapiens; for Emax: read-out: MI %; for EC50: read-out: EC50 (absolute EC50)
Experimental: as §2

[15] = tested on: Z138; conditions: Homo sapiens; for Emax: read-out: MI %; for EC50: read-out: EC50 (absolute EC50)
Experimental: as §2

[16] = tested on: RPMI-8226; conditions: Homo sapiens; for Emax: read-out: MI %; for EC50: read-out: EC50 (absolute EC50)
Experimental: as §2

[17] = tested on: BxPC-3-Luc; conditions: read-out: EC50 (absolute EC50)
Experimental: as §2

[18] = tested on: MOLT-4; conditions: Homo sapiens; for Emax: read-out: MI %; for EC50: read-out: EC50 (absolute EC50)
Experimental: as §2

[19] = tested on: MV4-11; conditions: Homo sapiens; for Emax: read-out: MI %; for EC50: read-out: EC50 (absolute EC50)
Experimental: as §2

`Nc1nc(Cl)nc2c1ncn2[C@@H]1O[C@H](CO)C[C@H]1O` [2-Cl-cordycepin, 3′-deoxy-2-chloroadenosine, reference compound] was tested, and the Emax ([1]; HT-29, HT29, 72 hr, Table VII) was 4.4%, the EC50 ([1]; HT-29, HT29, 72 hr) was greater than 100 µM and the Emax ([2]; KG-1, 72 hr, Table VII) was 4.3%. The EC50 ([2]; KG-1, 72 hr) was greater than 100 µM, the Emax ([3]; 72 hr, Table VII) was 98.1% and the EC50 ([3]; 72 hr) was 15 to 100 µM. The Emax ([4]; K562, 72 hr, Table VII) was 37.6%, the EC50 ([4]; K562, 72 hr) was greater than 100 µM and the Emax ([5]; HEL.92.1.7, 72 hr, Table VII) was 94.3%. The EC50 ([5]; HEL.92.1.7, 72 hr) was 5 to 15 µM, the Emax ([6]; MCF7, MCF-7, 72 hr, Table VII) was -0.9% and the EC50 ([6]; MCF7, MCF-7, 72 hr) was greater than 100 µM. For the same compound, the Emax ([7]; HL-60, 72 hr, Table VII) was 84.4%, the EC50 ([7]; HL-60, 72 hr) was 15 to 100 µM and the Emax ([8]; MIA PaCa-2, Mia-Pa-Ca-2, 72 hr, Table VII) was 17.7%. The EC50 ([8]; MIA PaCa-2, Mia-Pa-Ca-2, 72 hr) was greater than 100 µM, the Emax ([9]; HepG2, 72 hr, Table VII) was 31.1% and the EC50 ([9]; HepG2, 72 hr) was greater than 100 µM. For the same compound, the Emax ([10]; 72 hr, Table VII) was 84.1%, the EC50 ([10]; 72 hr) was 15 to 100 µM and the Emax ([11]; SW-620, SW620, 72 hr, Table VII) was 36.3%. The EC50 ([11]; SW-620, SW620, 72 hr) was greater than 100 µM, the Emax ([12]; Hs 445, HS445, 72 hr, Table VII) was -1.9% and the EC50 ([12]; Hs 445, HS445, 72 hr) was greater than 100 µM. For the same compound, the Emax ([13]; NCI-H929, 72 hr, Table VII) was 93.6%, the EC50 ([13]; NCI-H929, 72 hr) was 5 to 15 µM and the Emax ([14]; THP-1, 72 hr, Table VII) was 24.1%. The EC50 ([14]; THP-1, 72 hr) was greater than 100 µM, the Emax ([15]; Z-138, 72 hr, Table VII) was 99.5% and the EC50 ([15]; Z-138, 72 hr) was 15 to 100 µM. It also gave an Emax ([16]; RPMI-8226, 72 hr, Table VII) of 29%, an EC50 ([16]; RPMI-8226, 72 hr) greater than 100 µM and an EC50 ([17]; BxPC-3-Luc, 72 hr) greater than 100 µM. It also gave an Emax ([18]; MOLT-4, 72 hr, Table VII) of 80.4%, an EC50 ([18]; MOLT-4, 72 hr) greater than 100 µM and an Emax ([19]; MV4-11, 72 hr, Table VII) of 100%. For the same compound, the EC50 ([19]; MV4-11, 72 hr) was 15 to 100 µM.

`CC(NP(=O)(OC[C@@H]1C[C@@H](O)[C@H](n2cnc3c(N)nc(Cl)nc32)O1)Oc1cccc2ccccc12)C(=O)OCc1ccccc1` (stereo in doubt) [S, (2R)-benzyl 2-((((2S,4R,5R)-5-(6-amino-2-chloro-9H-purin-9-yl)-4-hydroxytetrahydrofuran-2-yl)methoxy)(naphthalen-1-yloxy)phosphorylamino)propanoate] gave an EC50 ([1]; HT-29, 72 h) of 15 to 100 µM, an Emax ([1]; HT-29, 72 h) of 88.1% and an EC50 ([2]; KG-1, 72 h) of 15 to 100 µM. For the same compound, the Emax ([2]; KG-1, 72 h) was 99%, the EC50 ([3]; 72 h) was 5 to 15 µM and the Emax ([3]; 72 h) was 100%. It also gave an EC50 ([4]; K562, 72 h) of 15 to 100 µM, an Emax ([4]; K562, 72 h) of 101% and an EC50 ([5]; HEL 92.1.7, 72 h) of 5 to 15 µM. The Emax ([5]; HEL 92.1.7, 72 h) was 100%, the EC50 ([6]; MCF7, 72 h) was 15 to 100 µM and the Emax ([6]; MCF7, 72 h) was 101%. The EC50 ([7]; HL-60, 72 h) was 5 to 15 µM, the Emax ([7]; HL-60, 72 h) was 102% and the EC50 ([8]; MIA PaCa-2, 72 h) was 15 to 100 µM. For the same compound, the Emax ([8]; MIA PaCa-2, 72 h) was 98.2%, the EC50 ([9]; HepG2, 72 h) was 15 to 100 µM and the Emax ([9]; HepG2, 72 h) was 84.6%. The EC50 ([10]; 72 h) was 5 to 15 µM, the Emax ([10]; 72 h) was 100% and the EC50 ([11]; SW-620, 72 h) was 15 to 100 µM. The Emax ([11]; SW-620, 72 h) was 92.1%, the EC50 ([12]; Hs 445, 72 h) was 15 to 100 µM and the Emax ([12]; Hs 445, 72 h) was 106%. It also gave an EC50 ([13]; NCI-H929, 72 h) of 5 to 15 µM, an Emax ([13]; NCI-H929, 72 h) of 102% and an EC50 ([14]; THP-1, 72 h) of 15 to 100 µM. For the same compound, the Emax ([14]; THP-1, 72 h) was 97%, the EC50 ([15]; Z-138, 72 h) was 15 to 100 µM and the Emax ([15]; Z-138, 72 h) was 90.2%. For the same compound, the EC50 ([16]; RPMI-8226, 72 h) was 15 to 100 µM, the Emax ([16]; RPMI-8226, 72 h) was 99.6% and the EC50 ([17]; 72 h) was 15 to 100 µM. For the same compound, the EC50 ([18]; MOLT-4, 72 h) was 5 to 15 µM, the Emax ([18]; MOLT-4, 72 h) was 100% and the EC50 ([19]; MV4-11, 72 h) was 5 to 15 µM. It also gave an Emax ([19]; MV4-11, 72 h) of 101%.

Source: patent US10570168B2, “2′ and/or 5′ amino-acid ester phosphoramidate 3′-deoxy adenosine derivatives as anti- cancer compounds” (NuCana plc, priority 2014, dated 2020)
